Assay results as given in patent US20250040554A1, “NEW USES OF PHENMEDIPHAM AND HERBICIDAL COMBINATIONS COMPRISING PHENMEDIPHAM” (BAYER AKTIENGESELLSCHAFT, priority 2021, published 2025).

What was measured:
Type in all cases: in vivo
[1] = test system: BRADC=Brachiaria decumbens; experiment: Weed control field trial BRADC
Source text: (§1) The respective (combinations of) materials were applied to weed plants in the greenhouse or in the field at the respective growth stage indicated hereinafter for the different weed species mentioned below. The respective (combinations of) active ingredients were also applied to corn, cotton and soybean crop plants, and the selectivity (damage) in these crop plants rated (assessed).
(§2) Visual scoring of the damage to the trial plants took place after the time mentioned in the respective Table—indicated in number of Days After Application (DAA). Damage and development of all above-ground parts of the respective plants was recorded. Visual rating was done on a percentage scale in relation to the untreated control (100%=all plants dead; 50%=green plant biomass reduced by 50%, and 0%=no discernible difference=like control plot).
(§3) The trials in the greenhouse were sprayed with an application volume of 300 L/ha with an automated track sprayer. The plots in the field were sprayed with an application volume of 140 L/ha with a hand held spray boom.
(§4) wherein • A, B=respective value in percent of active ingredient A at a dose rate of a g/ha, ingredient B at a dose rate of b g/ha • E^C=Expected value according to Colby (S. R. Colby; Weeds 15 (1967), 20-22) in % at a dose rate of a+b, each in g/ha • Δ=Difference (in %) between measured value E and expected value E^C (%) (measured value minus expected value)
(§5) The growth stages of the different weed species are indicated according to the BBCH monograph “Growth stages of mono- and dicotyledonous plants”, 2nd edition, 2001, ed. Uwe Meier, Federal Biological Research Centre for Agriculture and Forestry (Biologische Bundesanstalt für Land und Forstwirtschaft).
(§6) After the harmful plants had emerged, they were treated, at the respective growth stage indicated, with the respective materials as indicated at a water application rate of 140 L/ha.
(§7) After the treatment (21 or 35 days after application of the respective material), the herbicidal activity of respective material was scored visually at the same time by comparing the differently treated plots with the untreated control plots. The score figures of the different plots were averaged.
(§8) The dose rates of herbicidal ingredients used in each case are indicated for the respective active ingredient and refer to the amount of active ingredient per hectare (g/ha).
(§9) The weed control activity of different (combinations of) herbicidal active ingredients was investigated in field trials for the following weed species: • AMAVI=Amaranthus viridis • IPOAO=Ipomoea aristolochiaefolia • EPHHL=Euphorbia heterophylla • BIDPI=Bidens pilosa • BRADC=Brachiaria decumbens • ELEIN=Eleusine indica • CCHEC=Cenchrus echinatus
(§10) The growth stage of AMAVI was BBCH 13, the growth stage of IPOAO was BBCH 15, the growth stage of EPHHL was BBCH 13, the growth stage of BIDPI was BBCH 14, the growth stage of BRADC was BBCH 23, the growth stage of ELEIN was BBCH 11 and the growth stage of CCHEC was BBCH 12 at the time of application of the respective material.
(§11) Phenmedipham and Mesotrione were applied at varying application rates (Dose Rate) to the different species of weed plants. The results are shown in Tables 3a to 3e as the % control when assessed 21 and 35 days after application (DAA), respectively.
(§12) In all the trials of Tables 3a to 3e Mero® (rapeseed oil methyl ester) was added to the respective spray mixture in an amount corresponding to 1 L/ha for PMP, 1 L/ha for MST, and 2 L/ha for mixtures of PMP+MST.

ELEIN=Eleusine indica = experiment: Weed control field trial ELEIN
Source text: as §1, §2, §3, §4, §5, §6, §7, §8, §9, §10, §11, §12

[2] = test system: AMARE=Amaranthus retroflexus; experiment: Weed control field trial AMARE; details: 15 DAA
Source text: as §1, §2, §4
(§13) After the harmful plants had emerged, they were treated, at the respective growth stage indicated, with the respective materials as indicated at a water application rate of 187 L/ha.
(§14) After the treatment (15 days after the treatment), the herbicidal activity of respective material was scored visually at the same time by comparing the differently treated plots with the untreated control plots. The score figures of the different plots were averaged.
as §8
(§15) The weed control activity of different (combinations of) herbicidal active ingredients was investigated in field trials for the following weed species: • AMARE=Amaranthus retroflexus • KCHSC=Kochia scoparia • PANRA=Panicum ramosum
(§16) The growth stage of AMARE was BBCH 19, the growth stage of KCHSC was BBCH 19 and the growth stage of PANRA was BBCH 22 at the time of application of the respective material.
(§17) Phenmedipham and the respective aroylcyclohexanedione herbicide were applied at varying application rates (Dose Rate) to the different species of weed plants. The results are shown in Tables 4a to 4d as the % control when assessed 15 days after application (DAA), respectively.
(§18) In all the trials of Tables 4a to 4d Mero® (rapeseed oil methyl ester) was added to the respective spray mixture in an amount corresponding to 1 L/ha for PMP, 1 L/ha for the respective aroylcyclohexanedione herbicide, and 2 L/ha for mixtures of PMP+the respective aroylcyclohexanedione herbicide.

PANRA=Panicum ramosum = experiment: Weed control field trial PANRA; details: 15 DAA
Source text: as §1, §2, §4, §13, §14, §8, §15, §16, §17, §18

[3] = test system: non-traited soybean (Glycine max, GLXMA); experiment: Field selectivity trial soybean; details: 35 DAA
Source text: as §1, §2, §3
Phenmedipham and combinations of phenmedipham and mesotrione were applied at varying application rates (Dose Rate) to the crop plants of non-traited soybean (Glycine max, GLXMA) and corn (Zea mays, ZEAMX). The results are shown in Table 5 as the % damage when assessed 35 days after application (DAA), respectively.
In all the selectivity trials of Table 5 the adjuvant Mero® (rapeseed oil methyl ester) was added to the respective spray mixture in an amount corresponding to 1 L/ha for PMP, 1 L/ha for MST, and 2 L/ha for mixtures of PMP+MST.
The herbicidal effects observed for the herbicide(s) are indicated in % activity against the respective weed. The % damage (injury) indicated refers to the maximum damage observed.

SMILES: COC(=O)Nc1cccc(OC(=O)Nc2cccc(C)c2)c1 [PMP, 3-[(methoxyformyl)amino]phenyl (3-methylphenyl)carbamate]
- % control BRADC ([1]; 75 g/ha, 21 DAA): 0%
- % control BRADC ([1]; 75 g/ha, 35 DAA): 0%
- % control BRADC ([1]; 100 g/ha, 21 DAA): 0%
- % control BRADC ([1]; 100 g/ha, 35 DAA): 0%
- % control BRADC ([1]; 125 g/ha, 21 DAA): 0%
- % control BRADC ([1]; 125 g/ha, 35 DAA): 0%
- % control BRADC ([1]; 250 g/ha, 21 DAA): 0%
- % control BRADC ([1]; 250 g/ha, 35 DAA): 0%
- % control ELEIN (ELEIN=Eleusine indica; 75 g/ha, 21 DAA): 0%
- % control ELEIN (ELEIN=Eleusine indica; 75 g/ha, 35 DAA): 0%
- % control ELEIN (ELEIN=Eleusine indica; 100 g/ha, 21 DAA): 0%
- % control ELEIN (ELEIN=Eleusine indica; 100 g/ha, 35 DAA): 0%
- % control ELEIN (ELEIN=Eleusine indica; 125 g/ha, 21 DAA): 0%
- % control ELEIN (ELEIN=Eleusine indica; 125 g/ha, 35 DAA): 0%
- % control ELEIN (ELEIN=Eleusine indica; 250 g/ha, 21 DAA): 0%
- % control ELEIN (ELEIN=Eleusine indica; 250 g/ha, 35 DAA): 0%
- % control AMARE ([2]; 150 g/ha): 0%
- % control AMARE ([2]; 300 g/ha): 5%
- % control PANRA (PANRA=Panicum ramosum; 150 g/ha): 0%
- % control PANRA (PANRA=Panicum ramosum; 300 g/ha): 5%
- maximum damage GLXMA ([3]; 75 g/ha): 10%
- maximum damage GLXMA ([3]; 125 g/ha): 15%
- maximum damage GLXMA ([3]; 250 g/ha): 14%

SMILES: CS(=O)(=O)c1ccc(C(=O)C2C(=O)CCCC2=O)c([N+](=O)[O-])c1 [MST, 2-[4-(methylsulfonyl)-2-nitrobenzoyl]cyclohexane-1,3-dione]
- % control BRADC ([1]; 25 g/ha, 21 DAA): 0%
- % control BRADC ([1]; 25 g/ha, 35 DAA): 0%
- % control BRADC ([1]; 50 g/ha, 21 DAA): 17%
- % control BRADC ([1]; 50 g/ha, 35 DAA): 13%
- % control ELEIN (ELEIN=Eleusine indica; 25 g/ha, 21 DAA): 0%
- % control ELEIN (ELEIN=Eleusine indica; 25 g/ha, 35 DAA): 0%
- % control ELEIN (ELEIN=Eleusine indica; 50 g/ha, 21 DAA): 17%
- % control ELEIN (ELEIN=Eleusine indica; 50 g/ha, 35 DAA): 17%
- % control AMARE ([2]; 20 g/ha): 25%
- % control AMARE ([2]; 40 g/ha): 30%
- % control AMARE ([2]; 60 g/ha): 40%
- % control AMARE ([2]; 80 g/ha): 45%
- % control AMARE ([2]; 100 g/ha): 50%
- % control PANRA (PANRA=Panicum ramosum; 20 g/ha): 15%
- maximum damage GLXMA ([3]; 25 g/ha): 12%
- maximum damage GLXMA ([3]; 50 g/ha): 29%
